One test concerns anaerobic bacteria. The experiment in a line: Agar dilution method for anaerobic bacteria, summary. It counts as cell-based. (In general: In agar dilution the substance is mixed into plates at graded concentrations.)
Another test deals with Clostridium camis. The experiment in a line: Agar dilution MIC, anaerobes. It counts as cell-based. To be noted: Clostridium; single isolates, anaerobic agar dilution; read-out: MIC Clostridium camis.
In the next test the test system is Prevotella intermedia. The experiment in a line: Agar dilution MIC, anaerobes. It counts as cell-based. To be noted: single isolates, anaerobic agar dilution.
For a further test, the system named is Fusobacterium montiferum. The experiment in a line: Agar dilution MIC, anaerobes. The test is classed as cell-based. To be noted: Fusobacterium, single isolates, anaerobic agar dilution; read-out: MIC Fusobacterium montiferum.
The test system of another test is P. acnes. The experiment in a line: Agar dilution MIC, anaerobes. To be noted: Cutibacterium acnes, single isolates, anaerobic agar dilution; read-out: MIC P. acnes. It counts as cell-based.
The test system of another test is S. aureus ATCC 25923. The experiment in a line: MIC, agar incorporation method. The following applies: Staphylococcus aureus, ATCC25923, read-out: MIC S. aureus 25923.
For a further test, the system named is Strep. pyog. ATCC 19615. The experiment in a line: MIC, agar incorporation method. To be noted: Streptococcus pyogenes, ATCC19615, read-out: MIC S. pyogenes 19615.
A further test deals with S. aureus. The experiment in a line: Summary of in vitro activity (MIC). The following applies: Staphylococcus aureus.
Another test has as its system E. faecalis. The experiment in a line: Summary of in vitro activity (MIC). To be noted: Enterococcus faecalis.
In test [1] the test system is Mycobacterium tuberculosis. The experiment in a line: microbe, parasite or virus in culture. The following applies: 504 h.
The subject of test [2] is MRSE 879 adherent bacteria. The experiment in a line: Sintered glass adherent bacteria model. To be noted: MRSE 879, sintered glass adherent bacteria model.
Where [3] appears, read: read-out: Geometric Mean of in vitro activity (MIC).

The source of these data is patent publication US20040254162A1, “Oxazolidinone derivatives as antimicrobials” (priority 2001, published 2004).

Broadly, the MIC is the least concentration at which growth counts as inhibited.

Each structure is given as a SMILES string. Values after ≈ are worked out from the molar mass of the structure shown.

With `CC(=O)NC[C@H]1CN(c2ccc(N3CCOCC3)c(F)c2)C(=O)O1` [Linezolid], the MIC50 against anaerobic bacteria (48 h) stood at 1 µg/mL (≈ 2.96 µM); with S. aureus, 2 µg/mL (≈ 5.93 µM); in the test on E. faecalis, 4 µg/mL (≈ 11.9 µM); in test [1], 8 µg/mL (≈ 23.7 µM). Moreover, the MIC90 with anaerobic bacteria (48 h) is 4 µg/mL (≈ 11.9 µM); against S. aureus, 4 µg/mL (≈ 11.9 µM); against E. faecalis, 16 µg/mL (≈ 47.4 µM); in test [1], 64 µg/mL (≈ 190 µM). For the same molecule, the “Geometric Mean” value in the test on anaerobic bacteria (anaerobes) is 1.134 µg/mL. In the test on anaerobic bacteria (anaerobes), the “MIC Range” value lay within 0.25 to 4 µg/mL. Further, the MIC was determined as 2 µg/mL (≈ 5.93 µM) with Clostridium camis; 0.5 µg/mL (≈ 1.48 µM) with Prevotella intermedia (Prevotella intermedia, read-out: MIC Prevotella intermedia); 0.25 µg/mL (≈ 0.741 µM) in the test on Fusobacterium montiferum; 0.5 µg/mL (≈ 1.48 µM) with P. acnes; 2 µg/mL (≈ 5.93 µM) with S. aureus ATCC 25923; 2 µg/mL (≈ 5.93 µM) with Strep. pyog. ATCC 19615. Further, the values for the MIC with S. aureus (setting [3]) and in the test on E. faecalis (setting [3]) were 2.38 µg/mL (≈ 7.05 µM) and 4 µg/mL (≈ 11.9 µM), respectively. In addition, the “MIC Prevotella intermedia” value in the test with Prevotella intermedia was 1 µg/mL (≈ 2.96 µM). In addition, the “concentration which would kill adherent bacteria” value in [2] was 32 µg/mL.
